According to US20240285634A1, “COMPOUND AND METHOD FOR TREATING CHEMOTHERAPY-ASSOCIATED GASTROINTESTINAL SIDE EFFECTS” (ONQUALITY PHARMACEUTICALS CHINA LTD., priority 2021, published 2024):

Test system: Chemotherapeutic agent-caused constipation models of Balb/c mice
Experiment: Relieving effect on constipation caused by a chemotherapeutic agent (Examples 202-364)
Assay type: in vivo
Excerpt: Construction of mouse animal models: Chemotherapeutic agent-caused constipation models of Balb/c mice were constructed according to the administration mode and frequency of the chemotherapeutic agent as shown in Table 4. […] Thus, chemotherapeutic agent-caused constipation models of mice are very good models to mimic constipation caused by the chemotherapeutic agent.
Balb/c mice were fed for 1 week, and then divided into groups. The experiment was divided into a control group, a chemotherapeutic agent group, and a group of the compound as shown in Formula I, each of which comprised 10 mice, to perform the administration experiment, for which the administration dosage, mode, time and frequency were shown in Table 4. The control group: being injected or intragastrically administered with the same solvent as that used in the group of the compound as shown in Formula I (the administration mode and time were shown in Table 4), and then being injected or intragastrically administered with the same solvent as that used in the chemotherapeutic agent group (the administration mode was shown in Table 4); the chemotherapeutic agent group: being injected or intragastrically administered with the same solvent as that used in the group of the compound as shown in Formula I (the administration mode and time was shown in Table 4), and then being injected or intragastrically administered with the chemotherapeutic agent (the type, administration mode and dosage were shown in Table 4); the group of the compound as shown in Formula I: being injected or intragastrically administered with the compound as shown in Formula I (the administration mode and time was shown in Table 4), and then being administered with the chemotherapeutic agent (the administration mode and dosage were shown in Table 4).
The feces reduction rate was calculated with reference to the method of Ji Eun Kim (Lab Anim Res. 2016 December; 32(4): 231-240.). Feces reduction rate (%)=(the control group−the chemotherapeutic agent group or the group of the compound as shown in Formula I)/the control group*100%
It is regarded as effective remission when the feces reduction rate of mice in the group of the compound as shown in Formula I is reduced compared with that in the chemotherapeutic agent group.
The feces amount of mice within 3 hours was observed and recorded every day. At the end of the experiment, the number of mice in the group of the compound as shown in Formula I whose feces reduction rate was lower than that of mice in the chemotherapeutic agent group was recorded. Table 4 lists various animal experiment combinations of chemotherapeutic agents and the compound as shown in Formula I, as well as the corresponding experimental results.

Measured: Relative remission rate (%)

CN1CCN(c2ccc(Nc3ncc4cc5n(c4n3)C3(CCCCC3)CNC5=O)nc2)CC1 [Compound I, Trilaciclib]
70%: Example 295, Irinotecan (CPT-11) intraperitoneal injection 260 mg/kg single, compound intravenous injection 150 mg/kg single, 9 h before chemotherapeutic agent, cycle 8 days | Example 312, Fluorouracil 125 (F) and irinotecan 240 (I) mg/kg intravenous injection single, compound intravenous injection 100 mg/kg single, 12 h before chemotherapeutic agent, cycle 10 days
40%: Example 298, Irinotecan (CPT-11) intraperitoneal injection 260 mg/kg single, compound intravenous injection 150 mg/kg single, 12 h before chemotherapeutic agent, cycle 8 days | Example 299, Irinotecan (CPT-11) intraperitoneal injection 260 mg/kg single, compound intravenous injection 150 mg/kg single, 14 h before chemotherapeutic agent, cycle 8 days | Example 300, Irinotecan (CPT-11) intraperitoneal injection 260 mg/kg single, compound intravenous injection 150 mg/kg single, 16 h before chemotherapeutic agent, cycle 8 days | Example 303, Irinotecan (CPT-11) intraperitoneal injection 260 mg/kg single, compound intravenous injection 150 mg/kg single, 22 h before chemotherapeutic agent, cycle 8 days | Example 304, Irinotecan (CPT-11) intraperitoneal injection 260 mg/kg single, compound intravenous injection 150 mg/kg single, 24 h before chemotherapeutic agent, cycle 8 days | Example 309, Fluorouracil 125 (F) and irinotecan 240 (I) mg/kg intravenous injection single, compound intravenous injection 100 mg/kg single, 0.5 h before chemotherapeutic agent, cycle 10 days | Example 318, Fluorouracil 125 (F) and irinotecan 240 (I) mg/kg intraperitoneal injection single, compound intraperitoneal injection 100 mg/kg single, 1 h before chemotherapeutic agent, cycle 7 days | Example 326, Fluorouracil 100 (F) and oxaliplatin 5 (O) and irinotecan 100 (I) mg/kg intraperitoneal injection single, compound intraperitoneal injection 300 mg/kg single, 24 h before chemotherapeutic agent, cycle 8 days | Example 333, Fluorouracil 100 (F), oxaliplatin 5 (O), irinotecan 100 (I) and tetrahydrofolic acid 100 (L) mg/kg intravenous injection single, compound intravenous injection 100 mg/kg single, 6 h before chemotherapeutic agent, cycle 8 days | Example 337, Fluorouracil 100 (F), oxaliplatin 5 (O), irinotecan 100 (I) and tetrahydrofolic acid 100 (L) mg/kg intravenous injection single, compound intravenous injection 100 mg/kg single, 14 h before chemotherapeutic agent, cycle 8 days | Example 338, Fluorouracil 100 (F), oxaliplatin 5 (O), irinotecan 100 (I) and tetrahydrofolic acid 100 (L) mg/kg intravenous injection single, compound intravenous injection 100 mg/kg single, 16 h before chemotherapeutic agent, cycle 8 days | Example 339, Fluorouracil 100 (F), oxaliplatin 5 (O), irinotecan 100 (I) and tetrahydrofolic acid 100 (L) mg/kg intravenous injection single, compound intravenous injection 100 mg/kg single, 18 h before chemotherapeutic agent, cycle 8 days | Example 346, Fluorouracil 100 (F), oxaliplatin 5 (O), irinotecan 100 (I) and tetrahydrofolic acid 100 (L) mg/kg intraperitoneal injection single, compound oral administration 100 mg/kg single, 24 h before chemotherapeutic agent, cycle 7 days
50%: Example 296, Irinotecan (CPT-11) intraperitoneal injection 260 mg/kg single, compound intravenous injection 150 mg/kg single, 10 h before chemotherapeutic agent, cycle 8 days | Example 297, Irinotecan (CPT-11) intraperitoneal injection 260 mg/kg single, compound intravenous injection 150 mg/kg single, 11 h before chemotherapeutic agent, cycle 8 days | Example 301, Irinotecan (CPT-11) intraperitoneal injection 260 mg/kg single, compound intravenous injection 150 mg/kg single, 18 h before chemotherapeutic agent, cycle 8 days | Example 302, Irinotecan (CPT-11) intraperitoneal injection 260 mg/kg single, compound intravenous injection 150 mg/kg single, 20 h before chemotherapeutic agent, cycle 8 days | Example 308, Irinotecan (CPT-11) intravenous injection 260 mg/kg single, compound oral administration 100 mg/kg single, 12 h before chemotherapeutic agent, cycle 7 days | Example 313, Fluorouracil 125 (F) and irinotecan 240 (I) mg/kg intravenous injection single, compound intravenous injection 100 mg/kg single, 24 h before chemotherapeutic agent, cycle 10 days | Example 319, Fluorouracil 125 (F) and irinotecan 240 (I) mg/kg intraperitoneal injection single, compound intraperitoneal injection 100 mg/kg single, 12 h before chemotherapeutic agent, cycle 7 days | Example 325, Fluorouracil 100 (F) and oxaliplatin 5 (O) and irinotecan 100 (I) mg/kg intraperitoneal injection single, compound intraperitoneal injection 300 mg/kg single, 12 h before chemotherapeutic agent, cycle 8 days | Example 331, Fluorouracil 100 (F), oxaliplatin 5 (O), irinotecan 100 (I) and tetrahydrofolic acid 100 (L) mg/kg intravenous injection single, compound intravenous injection 100 mg/kg single, 3 h before chemotherapeutic agent, cycle 8 days | Example 332, Fluorouracil 100 (F), oxaliplatin 5 (O), irinotecan 100 (I) and tetrahydrofolic acid 100 (L) mg/kg intravenous injection single, compound intravenous injection 100 mg/kg single, 4 h before chemotherapeutic agent, cycle 8 days | Example 355, Fluorouracil 100 (F), oxaliplatin 5 (O), irinotecan 200 (I) and tetrahydrofolic acid 100 (L) mg/kg oral administration single, compound subcutaneous injection 100 mg/kg single, 0.5 h before chemotherapeutic agent, cycle 7 days | Example 356, Fluorouracil 100 (F), oxaliplatin 5 (O), irinotecan 200 (I) and tetrahydrofolic acid 100 (L) mg/kg oral administration single, compound subcutaneous injection 100 mg/kg single, 4 h before chemotherapeutic agent, cycle 7 days
30%: Example 322, Fluorouracil 100 (F) and oxaliplatin 5 (O) and irinotecan 100 (I) mg/kg intraperitoneal injection single, compound intraperitoneal injection 300 mg/kg single, 0.5 h before chemotherapeutic agent, cycle 8 days | Example 323, Fluorouracil 100 (F) and oxaliplatin 5 (O) and irinotecan 100 (I) mg/kg intraperitoneal injection single, compound intraperitoneal injection 300 mg/kg single, 4 h before chemotherapeutic agent, cycle 8 days | Example 329, Fluorouracil 100 (F), oxaliplatin 5 (O), irinotecan 100 (I) and tetrahydrofolic acid 100 (L) mg/kg intravenous injection single, compound intravenous injection 100 mg/kg single, 1 h before chemotherapeutic agent, cycle 8 days | Example 330, Fluorouracil 100 (F), oxaliplatin 5 (O), irinotecan 100 (I) and tetrahydrofolic acid 100 (L) mg/kg intravenous injection single, compound intravenous injection 100 mg/kg single, 2 h before chemotherapeutic agent, cycle 8 days | Example 340, Fluorouracil 100 (F), oxaliplatin 5 (O), irinotecan 100 (I) and tetrahydrofolic acid 100 (L) mg/kg intravenous injection single, compound intravenous injection 100 mg/kg single, 20 h before chemotherapeutic agent, cycle 8 days | Example 341, Fluorouracil 100 (F), oxaliplatin 5 (O), irinotecan 100 (I) and tetrahydrofolic acid 100 (L) mg/kg intravenous injection single, compound intravenous injection 100 mg/kg single, 24 h before chemotherapeutic agent, cycle 8 days | Example 360, Gemcitabine (GEM) intravenous injection 120 mg/kg single, compound oral administration 100 mg/kg single, 24 h before chemotherapeutic agent, cycle 8 days
20%: Example 328, Fluorouracil 100 (F), oxaliplatin 5 (O), irinotecan 100 (I) and tetrahydrofolic acid 100 (L) mg/kg intravenous injection single, compound intravenous injection 100 mg/kg single, 0.5 h before chemotherapeutic agent, cycle 8 days
0%: Example 305, Irinotecan (CPT-11) intraperitoneal injection 260 mg/kg single, compound intravenous injection 150 mg/kg single, 48 h before chemotherapeutic agent, cycle 8 days | Example 314, Fluorouracil 125 (F) and irinotecan 240 (I) mg/kg intravenous injection single, compound intravenous injection 100 mg/kg single, 48 h before chemotherapeutic agent, cycle 10 days | Example 327, Fluorouracil 100 (F) and oxaliplatin 5 (O) and irinotecan 100 (I) mg/kg intraperitoneal injection single, compound intraperitoneal injection 300 mg/kg single, 48 h before chemotherapeutic agent, cycle 8 days | Example 342, Fluorouracil 100 (F), oxaliplatin 5 (O), irinotecan 100 (I) and tetrahydrofolic acid 100 (L) mg/kg intravenous injection single, compound intravenous injection 100 mg/kg single, 48 h before chemotherapeutic agent, cycle 8 days
60%: Example 306, Irinotecan (CPT-11) oral administration 300 mg/kg single, compound intraperitoneal injection 100 mg/kg single, 24 h before chemotherapeutic agent, cycle 10 days | Example 307, Irinotecan (CPT-11) intramuscular injection 260 mg/kg single, compound intramuscular injection 100 mg/kg single, 1 h before chemotherapeutic agent, cycle 7 days | Example 310, Fluorouracil 125 (F) and irinotecan 240 (I) mg/kg intravenous injection single, compound intravenous injection 100 mg/kg single, 4 h before chemotherapeutic agent, cycle 10 days | Example 311, Fluorouracil 125 (F) and irinotecan 240 (I) mg/kg intravenous injection single, compound intravenous injection 100 mg/kg single, 8 h before chemotherapeutic agent, cycle 10 days | Example 324, Fluorouracil 100 (F) and oxaliplatin 5 (O) and irinotecan 100 (I) mg/kg intraperitoneal injection single, compound intraperitoneal injection 300 mg/kg single, 8 h before chemotherapeutic agent, cycle 8 days | Example 334, Fluorouracil 100 (F), oxaliplatin 5 (O), irinotecan 100 (I) and tetrahydrofolic acid 100 (L) mg/kg intravenous injection single, compound intravenous injection 100 mg/kg single, 8 h before chemotherapeutic agent, cycle 8 days | Example 335, Fluorouracil 100 (F), oxaliplatin 5 (O), irinotecan 100 (I) and tetrahydrofolic acid 100 (L) mg/kg intravenous injection single, compound intravenous injection 100 mg/kg single, 10 h before chemotherapeutic agent, cycle 8 days | Example 336, Fluorouracil 100 (F), oxaliplatin 5 (O), irinotecan 100 (I) and tetrahydrofolic acid 100 (L) mg/kg intravenous injection single, compound intravenous injection 100 mg/kg single, 12 h before chemotherapeutic agent, cycle 8 days | Example 345, Fluorouracil 100 (F), oxaliplatin 5 (O), irinotecan 100 (I) and tetrahydrofolic acid 100 (L) mg/kg intraperitoneal injection single, compound oral administration 100 mg/kg single, 6 h before chemotherapeutic agent, cycle 7 days
